Experimental data published in patent publication US12310944B2 (priority 2019, dated 2025).
Where two headings read alike, the source gives them in different places.

What was measured:
PC-12 neural cell line = experiment: Toxicity test in PC-12 nerve cell (MTT); type: cell-based; conditions: PC-12 cells; for SR(%) cell survival rate, 20 μM: 20 μM compound for 24 h; for SR(%) cell survival rate, 50 μM: 50 μM compound for 24 h
Procedure: Toxicity Test in PC-12 Nerve Cell:
Drugs and reagents: Test compounds, DMEM medium (01-050-1A) purchased from Biological Industries, FBS fetal bovine serum (04-001-1A) purchased from Biological Industries, MTT thiazolyl blue reagent (KGT525500) purchased from KeyGEN BioTECH.
(§1) Instrument: THERMO Varioskan Flash full-wavelength multifunctional microplate reader.
About 3×10^3 PC-12 cells were evenly mixed in 0.1 mL of DMEM medium containing 10% FBS, and plated on a 96-well bottom plate, and incubated overnight at 37° C. in an environment containing 5% CO2. The 20 μM and 50 μM compounds diluted in 0.1 mL of DMEM medium were treated on the cells for 24 hours. Then MTT reagent was added to the well plate, and the plate was incubated at 37° C. for 2 to 4 hours. The color reaction was measured at 492 nm using a spectrophotometer (Thermo, multiskan FC).

[1] = molecular target: T1, eqBuChE (BuChE, E.C.3.1.1.8, selected from horse serum) (Equus caballus, UniProt P81908); experiment: Cholinesterase inhibitory activity (DTNB/BTC), eqBuChE; type: biochemical
T1 construct: BuChE (E.C.3.1.1.8, selected from horse serum); purchased Sigma; host or cells: horse serum
T1 sequence (P81908 whole entry): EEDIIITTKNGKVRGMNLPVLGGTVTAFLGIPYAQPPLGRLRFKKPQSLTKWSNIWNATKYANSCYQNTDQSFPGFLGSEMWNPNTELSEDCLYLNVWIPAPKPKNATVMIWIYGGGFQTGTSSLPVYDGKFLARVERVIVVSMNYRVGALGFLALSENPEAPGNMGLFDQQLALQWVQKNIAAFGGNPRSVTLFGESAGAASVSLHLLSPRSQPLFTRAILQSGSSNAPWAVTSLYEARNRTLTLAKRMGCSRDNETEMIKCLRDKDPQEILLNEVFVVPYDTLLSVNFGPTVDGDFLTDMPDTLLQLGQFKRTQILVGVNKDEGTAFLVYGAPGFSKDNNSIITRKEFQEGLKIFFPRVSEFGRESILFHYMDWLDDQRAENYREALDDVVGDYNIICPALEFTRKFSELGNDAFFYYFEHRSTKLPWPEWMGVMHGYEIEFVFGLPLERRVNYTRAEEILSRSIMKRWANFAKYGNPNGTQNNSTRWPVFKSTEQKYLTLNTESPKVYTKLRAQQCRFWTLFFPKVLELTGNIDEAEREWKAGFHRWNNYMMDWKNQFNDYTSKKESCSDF
Excerpt: Determination of Cholinesterase Inhibitory Activity:
Drugs and reagents: Test compounds, AChE (E.C.3.1.1.7, Type VI-S, selected from electric eel), BuChE (E.C.3.1.1.8, selected from horse serum), 5,5′-dithiobis(2-nitrobenzoic acid) (DTNB), acetylthiocholine (ATC) iodide and butyrylthiocholine (BTC) iodide were all purchased from Sigma; the positive control tacrine hydrochloride (9-amino-1,2,3,4-tetrahydroacridine hydrochloride hydrate) was purchased from BioTrend.
as §1
(1) Formulation of buffer: 13.6 g of potassium dihydrogen phosphate was dissolved in 1 L of water, and pH was adjusted with potassium hydroxide to reach pH=8±0.1. The solution was stored at 4° C. for later use.
(2) Formulation of 0.01 M DTNB solution: 0.396 g of DTNB and 0.15 g of sodium bicarbonate were dissolved in 100 mL of water to prepare a 0.01 M DTNB solution, which was stored at −30° C. for later use.
(3) Formulation of 0.075 M ATC and BTC solutions: 0.217 g of ATC was dissolved in 10 mL of water to prepare a 0.075 M ATC solution, which was stored at −30° C. for later use; 0.237 g of BTC was dissolved in 10 mL of water to prepare a 0.075 M BTC solution, which was stored at −30° C. for later use.
(4) Formulation of AChE and BuChE solutions: 5,000 units of AChE were dissolved in 1 mL of 1% gel solution, and then diluted to 100 mL with water to prepare a AChE solution with a concentration of 5 units/mL, which was stored at −30° C. for later use; 5,000 units of BuChE were dissolved in 1 mL of 1% gel solution, and then diluted to 100 mL with water to prepare a BuChE solution with a concentration of 5 units/mL, which was stored at −30° C. for later use.
(5) Formulation of test substance solution: The test compound was dissolved in ethanol to obtain a solution with a concentration of 10^−3 M (ethanol would not affect the test results), and then diluted with water to prepare solutions with concentrations of […], 10^−5, 10^−6, 10^−7, 10^−8, 10^−9, and 10^−10 M, respectively.
Before the start of the experiment, all the solutions as used were warmed to room temperature, and the AChE and BuChE solutions were diluted 1-fold with water to prepare an enzyme solution with a concentration of 2.5 units/mL. The background UV absorbance was measured with a blank buffer (3 mL) as a subtraction value. Firstly, 100 μL of test compound solution, 100 μL of DTNB solution, and 100 μL of enzyme solution were added to 3 mL of buffer. After adding 20 μL of ATC or BTC solution to trigger the reaction, the time was recorded immediately and the test solution was mixted quickly and uniformly at the same time. After 2 minutes, the UV absorbance was measured at a wavelength of […]. The blank control group was measured with an equal volume of water instead of the test substance solution. All tests were performed three times in parallel. The UV absorption value of the blank control group was taken as 100%, the absorbance (OD value) of the test compound at each concentration was recorded, and GraphPad Prism™ (GraphPad Software, San Diego, CA, USA) software was used to analyze the results in a non-linear regression analysis model to calculate the corresponding IC50 values, as shown in Table 1.

hBuChE = hBuChE (Homo sapiens, UniProt P06276); experiment: Cholinesterase inhibitory activity (DTNB/BTC), hBuChE; type: biochemical; conditions: mean ± SEM
[2] = read-out: IC50 (nM) ± SEM eqBuChE
[3] = eqBuChE, mean ± SEM, three parallel tests

Structure (SMILES) | SR(%) cell survival rate, 20 μM (PC-12 neural cell line) | SR(%) cell survival rate, 50 μM (PC-12 neural cell line) | IC50 [1, 2] | IC50 (hBuChE) | IC50 [1, 3]
CCN(CC)Cc1ccccc1CNC(=O)c1cccc(NC(=O)c2ccc(I)cc2)c1 [Compound 21, 3-(4-iodobenzamido)-N-(2-((diethylamino)methyl)benzyl)benzamide] | 94.40% | 89.63% | 1.59 ± 0.26 nM | 3.33 ± 1.62 nM | 
CCN(CC)Cc1ccccc1CNC(=O)c1cccc(NC(=O)c2ccc(C)cc2)c1 [Compound 22, N-(2-((diethylamino)methyl)benzyl)-3-(4-methylbenzamido)benzamide] | 93.35% | 89.42% | 0.98 ± 0.21 nM | 1.54 ± 0.56 nM | 
CCN(CC)Cc1ccccc1CNC(=O)c1cccc(NC(=O)c2ccc(C)c(C)c2)c1 [Compound 23, N-(3-((2-((diethylamino)methyl)benzyl)carbamoyl)phenyl)-3,4-dimethylbenzamide] | 85.05% | 80.72% | 0.8 ± 0.24 nM | 1.53 ± 0.55 nM | 
CCN(CC)Cc1ccccc1CNC(=O)c1cccc(NC(=O)c2ccc(C(C)C)cc2)c1 [Compound 24] | 97.02% | 86.21% | 0.58 ± 0.67 nM | 2.08 ± 0.73 nM | 
CCN(CC)Cc1ccccc1CNC(=O)c1cccc(NC(=O)c2ccc(C(F)(F)F)cc2)c1 [Compound 25] | 97.58% | 91.57% | 0.38 ± 0.1 nM | 1.41 ± 0.01 nM | 
CCN(CC)Cc1ccccc1CNC(=O)c1cccc(NC(=O)c2ccc(OC)cc2)c1 [Compound 26] | 97.20% | 82.25% |  | 1.04 ± 0.52 nM | 0.55 ± 0.09 nM
CCN(CC)Cc1ccccc1CNC(=O)c1cccc(NC(=O)c2cccc(OC)c2)c1 [Compound 27] | 91.23% | 83.60% | 4.91 ± 1.35 nM | 12.8 ± 6.01 nM | 
CCN(CC)Cc1ccccc1CNC(=O)c1cccc(NC(=O)c2ccccc2OC)c1 [Compound 28] | 95.42% | 85.46% | 5.28 ± 1.21 nM | 20 ± 2.06 nM | 
CCN(CC)Cc1ccccc1CNC(=O)c1cccc(NC(=O)c2ccc(C(=O)OC)cc2)c1 [Compound 29, methyl 4-((3-((2-((diethylamino)methyl)benzyl)carbamoyl)phenyl)carbamoyl)benzoate] | 99.42% | 93.32% | 2.48 ± 0.26 nM | 9.06 ± 0.74 nM | 
CCN(CC)Cc1ccccc1CNC(=O)c1cccc(NC(=O)c2ccc(C(C)=O)cc2)c1 [Compound 30] | 91.86% | 72.56% |  | 24 ± 1.52 nM | 6.63 ± 0.66 nM
CCN(CC)Cc1ccccc1CNC(=O)c1cccc(NC(=O)c2ccc(C#N)cc2)c1 [Compound 31, 3-(4-cyanobenzamido)-N-(2-((diethylamino)methyl)benzyl)benzamide] | 94.67% | 91.59% | 15.8 ± 2.84 nM | 16.5 ± 15.1 nM | 
CCN(CC)Cc1ccccc1CNC(=O)c1cccc(NC(=O)c2ccc([N+](=O)[O-])cc2)c1 [Compound 32] | 97.42% | 84.65% | 22.6 ± 0.98 nM | 30.9 ± 3.26 nM | 
CCN(CC)Cc1ccccc1CNC(=O)c1cccc(NC(=O)c2ccc(N)cc2)c1 [Compound 33] | 90.21% | 74.62% | 1.56 ± 0.67 nM | 7.99 ± 2.53 nM | 
CN(C)Cc1ccccc1CNC(=O)c1cccc(NC(=O)c2cccs2)c1 [Compound 34, N-(3-((2-((dimethylamino)methyl)benzyl)carbamoyl)phenyl)thiophene-2-carboxamide] | 96.10% | 94.5% |  | 0.75 ± 0.27 nM | 0.29 ± 0.05 nM
CCCN(CCC)Cc1ccccc1CNC(=O)c1cccc(NC(=O)c2cccs2)c1 [Compound 35, N-(3-((2-((dipropylamino)methyl)benzyl)carbamoyl)phenyl)thiophene-2-carboxamide] | 92.58% | 84.86% |  | 0.89 ± 0.67 nM | 0.45 ± 0.04 nM
CCN(CC)Cc1cccc(CNC(=O)c2cccc(NC(=O)c3cccs3)c2)c1 [Compound 37, N-(3-((3-((diethylamino)methyl)benzyl)carbamoyl)phenyl)thiophene-2-carboxamide] | 92.05% | 82.03% | 12.6 ± 0.86 nM | 32.9 ± 15.7 nM | 
CCN(CC)Cc1ccc(CNC(=O)c2cccc(NC(=O)c3cccs3)c2)cc1 [Compound 38, N-(3-((4-((diethylamino)methyl)benzyl)carbamoyl)phenyl)thiophene-2-carboxamide] | 93.67% | 84.23% | 24.7 ± 10.6 nM | 75 ± 22.9 nM | 
